What was measured:
[1] = Solubility of the sodium salt in water; assay type: physicochemical; conditions: sodium salt in water at room temperature
Experimental: The compound was dissolved in water until it was no longer soluble in order to achieve a supersaturated concentration. The suspensions were sonicated for 15 min. prior to centrifugation at 13,000 revolutions per minute (rpm) for 6 minutes. Supernatants were removed and then recentrifuged prior to dilution of at least two fold in water to avoid precipitation during HPLC analysis.

[2] = Microsome stability, mouse; assay type: in vitro ADME; conditions: parent (as sodium salt) remaining after 30 min, mouse microsomes
Experimental: (§1) Microsome stability was carried out at Cyprotex using pooled human liver microsomes (male and female), pooled rat liver microsomes (male, Sprague Dawley rats), pooled mouse liver microsomes (male CD-1 mice) which were either prepared or purchased from a reputable commercial supplier. […] The final incubation volume was 25 μL. A control incubation was included for each compound tested where 0.1 M phosphate buffer pH 7.4 was added instead of NADPH (minus NADPH). Two control compounds were included with each species. All incubations were performed singularly for each test compound. Each compound was incubated for 0, 5, 15, 30 and 45 min. The control (minus NADPH) was incubated for 45 min only. The reactions were stopped by the addition of 50 μL methanol containing internal standard at the appropriate time points. The incubation plates were centrifuged at 2,500 rpm for 20 min at 4 °C to precipitate the protein. Following precipitation, the sample supernatants were combined in cassettes of up to 4 compounds and analysed using Cyprotex generic LC-MS/MS conditions. From a plot of ln peak area ratio (compound peak area/internal standard peak area) against time, the percentage compound remaining at 30 min was calculated. Results that were > 100% of matched control were defined as 100%.

[3] = Stability in solution (water, 20 °C, 24 h); assay type: physicochemical; conditions: sodium salt, 24 h at 20 °C in water
Experimental: Test compounds were incubated (10 μM; < 2.5% DMSO in final concentration) in Milli Q water (n=3 tubes) at 20 °C for 24 h. (Eppendorf Thermomixer Comfort). Aliquots were collected (25 μL) just before the incubation (time “0 min”) and at 24 h. These samples were stored in a -80 °C freezer until the analysis by liquid chromatography with tandem mass spectrometry spectrometry (LC-MS/MS) – see next section for method development. Samples were thawed on wet ice on the day of assay. Thawed aliquots were mixed by vortex mixer, 10 μL of the sample transferred to a clean tube, 40 μL of ice cold acetonitrile added (containing internal standard compound), then centrifuged at 13,000 rpm for 5 min, 40 μL of clear supernatant transferred to an HPLC insert and mixed with 80 μL of 0.01% formic acid in water. Ten to 20 μL was injected onto the LC-MS/MS system. Results are based on the peak area ratio of drug to internal standard at time “0 h” (i.e. before the incubation and at the end i.e. “24 h”).

[4] = In vivo plasma pharmacokinetics in mice; conditions: mouse plasma, 10 mg/kg i.p. in 20% hydroxypropyl-β-cyclodextrin
Experimental: The in vivo PK parameters were measured for seven compounds selected on the basis of the in vitro assessment described above. Plasma pharmacokinetics were determined in male CD-1 mice for compounds 3, 10, 11, 26, 50, 58 and 59 (Table 6). Blood samples were collected at 5–8 time-points after dosing the compounds at 10 mg/kg in a solution of 20% hydroxypropyl-β-cyclodextrin by intraperitoneal (IP) injection. For analysis of the samples, chromatographic conditions were optimised by HPLC for each compound of interest and an internal standard. A liquid chromatography with tandem mass spectrometry (LC-MS/MS) method was then developed and validated for quantitation of each analyte.
PK studies were carried out in female C57BL/6J (female) mice using IP administration of test compound, dosing at 10 mg/kg in a solution of 20% hydroxypropyl-β-cyclodextrin. Mice (n=3 at each time point) were culled with excess inhalation of CO2 and blood collected by cardiac puncture at 5-8 time points after dosing in ice cold EDTA tubes. Plasma was separated by centrifuging at 6000 rpm for 5 min and stored at -80°C until analysis by LC-MS/MS. Frozen plasma was thawed on wet ice on the day of analysis. Ten μL of sample was transferred to a clean microcentrifuge tube and mixed with ice cold acetonitrile (40 μL containing internal standard) to precipitate the plasma proteins. The tubes were centrifuged at 13000 rpm for 5 min to obtain a clear supernatant which was mixed with 0.01% formic acid-water (1:2). Ten to twenty µL was injected into the LC-MS/MS to measure the analyte concentration in the sample. The samples were quantitated against a calibration curve of known analyte concentrations run in test species blank plasma (sourced from Innovative Research, USA). The concentration vs time data was then fitted into a pharmacokinetic software program (Phoenix WinNonlin v6.2) to calculate the PK parameters including T½, Cmax and AUC0-∞.

[5] = Microsome stability, human; assay type: in vitro ADME; conditions: parent (as sodium salt) remaining after 30 min, human microsomes
Experimental: as §1

Microsome stability, rat = assay type: in vitro ADME; conditions: parent (as sodium salt) remaining after 30 min, rat microsomes
Experimental: as §1

[6] = Toxicity to KHYG1 NK cells (Trypan blue exclusion); assay type: cell-based, human; conditions: human, viability of KHYG1 NK cells after 24 h, n = 3
Experimental: (§2) The toxicity assay was carried out in exactly the same manner as the killing assay above, but instead of adding the labelled K562 target cells, 100 μL of RPMI 0.1% BSA was added. Cells were incubated for 4 h at 37 °C and then washed ×3 in RPMI + 0.1% BSA. […] Trypan blue was added to each well. Viable (clear) cells and total (clear + blue) cells were counted, and the percentage of viable cells was calculated compared to DMSO treated cell control (% viability).

[7] = target: T1, perforin delivered by KHYG1 NK cells (Homo sapiens, UniProt P14222); assay: KHYG1 inhibitory assay: lysis of 51Cr-labelled K562 target cells by KHYG1 NK cells; assay type: cell-based; conditions: 51Cr-labelled K562 target cells co-incubated with KHYG1 human NK cells, vs untreated control; for inhibition at 10 µM: n = 4; for KHYG1 Inhibition (% at 10 μM): n = 4, 10 µM
T1 construct: The use of whole NK cells to deliver perforin provides a more realistic model of conditions in vivo; endogenous in cells; host or cells: KHYG1 human NK cells (effector); K562 leukemia target cells
T1 sequence (P14222 22-555): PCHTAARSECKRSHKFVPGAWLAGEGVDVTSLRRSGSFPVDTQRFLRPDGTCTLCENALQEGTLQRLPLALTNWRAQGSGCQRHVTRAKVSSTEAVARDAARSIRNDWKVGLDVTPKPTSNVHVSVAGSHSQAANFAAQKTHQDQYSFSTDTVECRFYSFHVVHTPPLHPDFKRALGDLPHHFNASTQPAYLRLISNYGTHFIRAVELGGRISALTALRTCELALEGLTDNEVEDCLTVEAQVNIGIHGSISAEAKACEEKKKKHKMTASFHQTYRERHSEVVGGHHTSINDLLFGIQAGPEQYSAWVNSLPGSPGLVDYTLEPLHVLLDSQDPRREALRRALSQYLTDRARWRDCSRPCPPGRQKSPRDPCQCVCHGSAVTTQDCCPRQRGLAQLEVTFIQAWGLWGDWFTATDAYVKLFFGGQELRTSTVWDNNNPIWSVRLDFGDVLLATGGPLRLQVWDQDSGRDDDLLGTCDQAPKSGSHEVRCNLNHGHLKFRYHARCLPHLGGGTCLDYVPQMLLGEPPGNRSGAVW
Experimental: The inhibitory function is then determined by identifying the number of untreated or inhibitor treated effector cells required to kill the same number of targets.

recombinant perforin = target: T2, recombinant perforin (Mus musculus, UniProt P10820); assay: Inhibition of perforin-mediated lysis of Jurkat cells (51Cr release); assay type: cell-based; conditions: recombinant perforin pre-incubated with compound 30 min; 51Cr-labelled Jurkat cells, 0.1% BSA, 4 h
T2 sequence (P10820 21-554): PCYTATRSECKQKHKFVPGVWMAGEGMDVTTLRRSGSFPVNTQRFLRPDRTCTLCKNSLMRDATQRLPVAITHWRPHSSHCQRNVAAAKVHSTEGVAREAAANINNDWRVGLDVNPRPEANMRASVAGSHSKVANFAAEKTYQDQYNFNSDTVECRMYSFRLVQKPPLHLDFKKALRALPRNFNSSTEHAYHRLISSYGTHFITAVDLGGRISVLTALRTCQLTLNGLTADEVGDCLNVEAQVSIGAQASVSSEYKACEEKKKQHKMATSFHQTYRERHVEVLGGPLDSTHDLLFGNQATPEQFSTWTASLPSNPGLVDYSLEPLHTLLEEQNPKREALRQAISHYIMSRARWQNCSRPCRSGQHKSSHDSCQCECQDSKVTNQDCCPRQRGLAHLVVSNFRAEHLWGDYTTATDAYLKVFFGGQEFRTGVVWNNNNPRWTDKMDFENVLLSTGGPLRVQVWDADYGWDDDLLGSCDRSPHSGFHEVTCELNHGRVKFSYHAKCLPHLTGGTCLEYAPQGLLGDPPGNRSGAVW
Excerpt: The supernatant was collected and assessed for its radioactive content on a gamma counter (Wallac Wizard 1470 automatic gamma counter).

KHYG1 NK cells = assay: Toxicity to KHYG1 NK cells (Trypan blue exclusion); assay type: cell-based, human; conditions: viability of KHYG1 NK cells after 24 h, n = 3
Experimental: as §2

| SMILES | solubility at 15 min [1] | Microsome Stability (%) Mouse [2] | Stability in Solution (% parent remaining) [3] | AUC0-∞ [4] | Cmax [4] | T1/2 [4] | Microsome Stability (%) Human [5] | Microsome Stability (%) Rat (Microsome stability, rat) | viability at 24 h, 10 µM [6] | inhibition at 10 µM [7] | KHYG1 Inhibition (% at 10 μM) [7] | Inhibition of Jurkat Cell Lysis IC50 (recombinant perforin) | melting point | KHYG1 Viability (% at 10 μM) (KHYG1 NK cells) | Solubility [1] |
| --- | --- | --- | --- | --- | --- | --- | --- | --- | --- | --- | --- | --- | --- | --- | --- |
| CN1Cc2cc(-c3ccc(-c4cncc(NS(=O)(=O)c5ccccc5[N+](=O)[O-])c4)s3)ccc2C1=O [Compound 58, N-(5-(5-(2-Methyl-1-oxoisoindolin-5-yl)thiophen-2-yl)pyridin-3-yl)-2-nitrobenzenesulfonamide] | 671 µg/mL | 100% | 100% | 415 µM·h | 105 µM | 2.5 h | 73% | 89% | 98.7 ± 1.5% | 96% | 95.6 ± 1.9% |  |  |  |  |
| Cc1ccc(NS(=O)(=O)c2ccc(F)cc2F)cc1-c1ccc(-c2ccc3c(c2)CN(C)C3=O)s1 [Compound 13, 2,4-Difluoro-N-(4-methyl-3-(5-(2-methyl-1-oxoisoindolin-5-yl)thiophen-2-yl)phenyl)benzenesulfonamide] |  |  |  |  |  |  |  |  | 91.7 ± 10% | 50% | 50.3 ± 8.5% | complete loss of potency | 268 to 271 °C |  |  |
| CN1Cc2cc(-c3ccc(-c4cncc(NC(=O)c5ccc(F)cc5F)c4)s3)ccc2C1=O [Compound 8, 2,4-Difluoro-N-(5-(5-(2-methyl-1-oxoisoindolin-5-yl)thiophen-2-yl)pyridin-3-yl)benzamide] |  |  |  |  |  |  |  |  |  |  |  | complete loss of potency | 267 to 269 °C |  |  |
| CN1Cc2cc(-c3ccc(-c4cncc(NS(=O)(=O)c5ccc(C(=O)O)cc5)c4)s3)ccc2C1=O [Compound 55, 4-(N-(5-(5-(2-Methyl-1-oxoisoindolin-5-yl)thiophen-2-yl)pyridin-3-yl)sulfamoyl)benzoic acid] |  |  |  |  |  |  |  |  |  |  |  |  | > 310 °C | toxic to the NK cells |  |
| CN1Cc2cc(-c3ccc(-c4cncc(NS(=O)(=O)c5cccc(C#N)c5)c4)s3)ccc2C1=O [Compound 49, 3-Cyano-N-(5-(5-(2-methyl-1-oxoisoindolin-5-yl)thiophen-2-yl)pyridin-3-yl)benzenesulfonamide] |  |  |  |  |  |  |  |  | 94.4 ± 7.1% | 83.7 ± 3.2% |  | poor activity | 282 to 285 °C |  |  |
| CN1Cc2cc(-c3ccc(-c4ccc(NS(=O)(=O)c5ccc(F)cc5F)nc4)s3)ccc2C1=O [Compound 4, 2,4-Difluoro-N-(5-(5-(2-methyl-1-oxoisoindolin-5-yl)thiophen-2-yl)pyridin-2-yl)benzenesulfonamide] |  |  |  |  |  |  |  |  |  |  |  | activity is abolished | 269 to 272 °C |  |  |
| CN1Cc2cc(-c3ccc(-c4cnc(F)c(NS(=O)(=O)c5ccc(F)cc5F)c4)s3)ccc2C1=O [Compound 10, 2,4-Difluoro-N-(2-fluoro-5-(5-(2-methyl-1-oxoisoindolin-5-yl)thiophen-2-yl)pyridin-3-yl)benzenesulphonamide] | 428 µg/mL | 96% | 100% | 2885 µM·h | 236 µM | 6.6 h | 94% | 100% | 92 ± 3% | 93% | 92.5 ± 1.8% |  |  |  | negative impact on solubility |
| CN1Cc2cc(-c3ccc(-c4cnc(Cl)c(NS(=O)(=O)c5ccc(F)cc5F)c4)s3)ccc2C1=O [Compound 11, 2,4-Difluoro-N-(2-chloro-5-(5-(2-methyl-1-oxoisoindolin-5-yl)thiophen-2-yl)pyridin-3-yl)benzenesulphonamide] | 4030 µg/mL | 97% | 100% | 2364 µM·h | 149 µM | 9.5 h | 95% | 99% | 94 ± 5.3% | 95 ± 2.5% |  |  |  |  |  |
